Consider one compound from patent US9265781B2, “Process for producing a particulate composition comprising anhydrous crystalline 2-O-alpha-D-glucosyl-L-ascorbic acid” (HAYASHIBARA CO., LTD., priority 2009, dated 2016).

This series can be described thus: Accelerated heat-treatment test for browning (Experiment 4). In kind it is physicochemical. The following applies: 150 mg heated at 80° C. for three days, dissolved in 3 ml water, absorbance at 400 nm. The source says: Accordingly, in this experiment, Test samples 1 and 12 to 16, which had been used in the antecedent Experiments, were examined for the relationship between the coloration and the total content of L-ascorbic acid plus D-glucose, the content of L-ascorbic acid, or the reducing power of the whole particulate composition by conducting an accelerated test on heat treatment according to the following procedures:
One hundred and fifty milligrams of each of the test samples was weighed and placed in a 10-ml test tube with a screw cap, and the test tubes in a closed condition of their opening parts with the screw caps were placed in “DRYING-OVEN SA310”, a product name of an oven commercialized by Masuda Corp., Osaka, Japan, and heated at 80° C. for three days. […] The resulting solutions were measured for absorbance at a wavelength of 400 nm using “UV-2400PC”, a product name of a spectrophotometer commercialized by Shimadzu Corp., Kyoto, Japan. The degree of coloration caused by heating was judged based on the following two criteria: When the absorbance at a wavelength of 400 nm is less than 0.50, it is judged as “Not browned or substantially not browned” (−); and when the absorbance at a wavelength of 400 nm is 0.50 or higher, it is judged as “Browned” (+).

For `O=C1O[C@H]([C@@H](O)CO)C(O)=C1O[C@H]1O[C@H](CO)[C@@H](O)[C@H](O)[C@H]1O` [Test sample 16, 2-O-α-D-glucosyl-L-ascorbic acid], the Browning property entry is reported as “+ (when the absorbance at a wavelength of 400 nm is 0.50 or higher, it is judged as “Browned” (+))”.
